Source: publication PMC7046553, “Backbone Cyclization and Dimerization of LL-37-Derived Peptides Enhance Antimicrobial Activity and Proteolytic Stability” (Frontiers in Microbiology, 2020)
≈ marks a conversion by molar mass, not a printed value. Read-outs that look alike come from different tables or passages of the source. Where a SMILES comes first, the peptide text is derived from it. Where no end group is shown, it is not given here.

Key:
[1] = test system: human lymphoma cell line U-937 GTB; details: read-out: IC50 (cytotoxicity); 72 hours incubation; tested in parallel with the dimers; ref Gunasekera et al., 2018; cited from earlier work
in vitro = details: 25% human serum
Description: Proteolytic stability of the peptides were determined in diluted human serum (1:4 v/v, serum:PBS) at 37°C followed by LC-MS analysis. To examine the intact peptide after serum incubation, aliquots of each incubation mixture were taken at each time point for LC-MS analysis (Figure 5).
Peptide stability was assayed in diluted human serum. 25% human serum was centrifuged at 13,000 rpm for 10 min to remove lipids and the supernatant was collected and incubated at 37°C for 15 min. […] Eighty μl of 6 M urea was added and incubated at 4°C for a further 10 min. 80 μl of 20% TCA was added and incubated at 4°C for a further 10 min. The samples were centrifuged at 13000 g for 10 min and the supernatant was analyzed by LC-MS.

[2] = test system: Staphylococcus aureus ATCC 29213; details: ATCC 29213, 5 h
Description: (§1) The three bacterial strains: Escherichia coli ATCC 25922, Pseudomonas aeruginosa ATCC 27853 Staphylococcus aureus ATCC 29213 as well as the fungal strain Candida albicans ATCC 90028 derived from clinical wound infections were obtained from the Department of Clinical Bacteriology at Lund University Hospital.
(§2) Antimicrobial activities of the peptides were evaluated using the two-step microdilution assay ([Strömstedt et al., 2017]), which is designed for testing AMPs without activity-inhibiting components. Briefly, the microbial suspension was washed twice with 10 mM Tris buffer (set to pH 7.4 at 37°C). 96-well plates (U-shaped, untreated polystyrene) were prepared with peptide 2-fold serial dilutions in Tris buffer. The culture density was quantified by OD600, diluted in Tris buffer and 50,000 cells aliquoted to each well in the 96-well plate to a final 100 μl volume. After 5 h of aerobic incubation at 37°C, 5 μl of 20% TSB medium was added to each well (resulting in 1% TSB) and the plates were re-incubated. Growth-inhibition was monitored when controls produced pellet sizes of 2 mm in diameter (close to growth saturation), which equates to 5, 8, 10, and 12 h for E. coli, S. aureus, P. aeruginosa, and C. albicans, respectively. […] The MIC-values in Table 1, are medians from triplicate experiments, while the data presented in the Figure 2 are the same values relative to that of KR-12.

[3] = test system: Escherichia coli ATCC 25922; details: ATCC 25922, 5 h
Description: as §1, §2

[4] = test system: Pseudomonas aeruginosa ATCC 27853; details: ATCC 27853, 5 h
Description: as §1, §2

Human type A RBCs = assay: Hemolysis assay; format: cell-based
Description: Peptides were dissolved in water and serially diluted in PBS to give 20 μl test solutions in a 96-well U-bottomed microtiter plate (Nunc). Human type A RBCs (red blood cells) were washed with PBS and centrifuged at 1500 g for 60 s in a microcentrifuge several times until a clear supernatant was obtained. A 0.25% suspension of washed RBCs in PBS (100 μl) was added to the peptide solutions. The plate was incubated at 37°C for 1 h and centrifuged at 150 g for 5 min. Aliquots of 100 μl were transferred to a 96-well flat-bottomed microtiter plate (Falcon) and the absorbance was measured at 405 nm with an automatic Multiskan Ascent plate reader (Labsystems). The amount of hemolysis was calculated as the percentage of maximum lysis (1% Triton X-100 control) after adjusting for minimum lysis (PBS control). Synthetic melittin (Sigma) was used for comparison. The hemolytic dose necessary to lyse 50% of the RBCs (HD50) was calculated using the regression constant from the linear portion of the hemolytic titration curve (GraphPad Prism software).

[5] = format: cell-based, human
From the text: FIGURE 4 Cytotoxicity. Cytotoxicity on a human lymphoma cell line (U-937 GTB). The cell viability derives from the hydrolysis of the probe fluorescein diacetate by esterases in cells with intact plasma membranes. Results are means from triplicates with standard deviation, and the IC50 level is highlighted by a double line. The dose–response curve for LL-37 has been constrained within 100% to compensate for elevated fluorescein hydrolysis by intermediate LL-37 concentrations. The data for KR-12, Q5K,D9K and LL-37 are from our previous work ([Gunasekera et al., 2018]), but tested in parallel with the dimers and included here for consistency.
The cytotoxicity of the peptides was tested on the human lymphoma cell line U-937 GTB in a fluorometric microculture cytotoxicity assay (FMCA), described in detail previously ([Sundström and Nilsson, 1976]; [Lindhagen et al., 2008]). […] After incubation for 40 minutes the fluorescence was measured at 485 nm excitation and 538 nm emission using a Fluoroscan II (Labsystems Diagnostics Oy, Helsinki, FinlandI). The IC50-values were calculated using sigmoidal dose response curves with nonlinear non-linear regression and 0/100 constraints in GraphPad Prism (GraphPad Software, San Diego, CA, United States). […]

[6] = test system: Candida albicans ATCC 90028; details: ATCC 90028, 5 h
Description: as §1, §2

## CC[C@H](C)[C@H](NC(=O)[C@H](CCCCN)NC(=O)[C@H](CCC(=O)O)NC(=O)[C@H](CCCCN)NC(=O)[C@H](CO)NC(=O)[C@H](CCCCN)NC(=O)[C@H](CCCNC(=N)N)NC(=O)[C@H](Cc1ccccc1)NC(=O)[C@H](Cc1ccccc1)NC(=O)[C@H](CC(=O)O)NC(=O)CNC(=O)[C@H](CC(C)C)NC(=O)[C@@H](N)CC(C)C)C(=O)NCC(=O)N[C@@H](CCCCN)C(=O)N[C@@H](CCC(=O)O)C(=O)N[C@@H](Cc1ccccc1)C(=O)N[C@@H](CCCCN)C(=O)N[C@@H](CCCNC(=N)N)C(=O)N[C@H](C(=O)N[C@H](C(=O)N[C@@H](CCC(N)=O)C(=O)N[C@@H](CCCNC(=N)N)C(=O)N[C@H](C(=O)N[C@@H](CCCCN)C(=O)N[C@@H](CC(=O)O)C(=O)N[C@@H](Cc1ccccc1)C(=O)N[C@@H](CC(C)C)C(=O)N[C@@H](CCCNC(=N)N)C(=O)N[C@@H](CC(N)=O)C(=O)N[C@@H](CC(C)C)C(=O)N[C@H](C(=O)N1CCC[C@H]1C(=O)N[C@@H](CCCNC(=N)N)C(=O)N[C@H](C(=O)N[C@@H](CCC(=O)O)C(=O)N[C@@H](CO)C(=O)O)[C@@H](C)O)C(C)C)[C@@H](C)CC)C(C)C)[C@@H](C)CC [LL-37]
[1]
  IC50: 10 µM

## CC[C@H](C)[C@@H]1NC(=O)[C@H](CCCNC(=N)N)NC(=O)[C@H](CCC(N)=O)NC(=O)[C@H](C(C)C)NC(=O)[C@H]([C@@H](C)CC)NC(=O)[C@H](CCCNC(=N)N)NC(=O)[C@H](CCCCN)NC(=O)[C@H](C)NC(=O)CNC(=O)[C@H](CCCNC(=N)N)NC(=O)[C@H](CC(C)C)NC(=O)[C@H](Cc2ccccc2)NC(=O)[C@H](CC(=O)O)NC(=O)[C@H](CCCCN)NC(=O)[C@H]([C@@H](C)CC)NC(=O)[C@H](CCCNC(=N)N)NC(=O)[C@H](CCC(N)=O)NC(=O)[C@H](C(C)C)NC(=O)[C@H]([C@@H](C)CC)NC(=O)[C@H](CCCNC(=N)N)NC(=O)[C@H](CCCCN)NC(=O)[C@H](C)NC(=O)CNC(=O)[C@H](CCCNC(=N)N)NC(=O)[C@H](CC(C)C)NC(=O)[C@H](Cc2ccccc2)NC(=O)[C@H](CC(=O)O)NC(=O)[C@H](CCCCN)NC1=O [cd2] (cyclo(AKRIVQRIKDFLRGAKRIVQRIKDFLRG))
In vitro; human
  remaining at 6 h: ~30%
[2]
  MIC S. aureus: 1.25 µM (≈ 4.21 µg/mL)
[3]
  MIC E. coli: 0.625 µM (≈ 2.1 µg/mL)
[4]
  MIC P. aeruginosa: 0.625 µM (≈ 2.1 µg/mL)

## CC[C@H](C)[C@@H]1NC(=O)[C@H](CCCNC(=N)N)NC(=O)[C@H](CCCCN)NC(=O)[C@H](C(C)C)NC(=O)[C@H]([C@@H](C)CC)NC(=O)[C@H](CCCNC(=N)N)NC(=O)[C@H](CCCCN)NC(=O)CNC(=O)CNC(=O)[C@H](C)NC(=O)CNC(=O)[C@H](CCCNC(=N)N)NC(=O)[C@H](CC(C)C)NC(=O)[C@H](Cc2ccccc2)NC(=O)[C@H](CCCCN)NC(=O)[C@H](CCCCN)NC(=O)[C@H]([C@@H](C)CC)NC(=O)[C@H](CCCNC(=N)N)NC(=O)[C@H](CCCCN)NC(=O)[C@H](C(C)C)NC(=O)[C@H]([C@@H](C)CC)NC(=O)[C@H](CCCNC(=N)N)NC(=O)[C@H](CCCCN)NC(=O)CNC(=O)CNC(=O)[C@H](C)NC(=O)CNC(=O)[C@H](CCCNC(=N)N)NC(=O)[C@H](CC(C)C)NC(=O)[C@H](Cc2ccccc2)NC(=O)[C@H](CCCCN)NC(=O)[C@H](CCCCN)NC1=O [cd4(Q5K,D9K)] (cyclo(AGGKRIVKRIKKFLRGAGGKRIVKRIKKFLRG))
Human type A RBCs; red cells of human, 1 h
  HC50 (hemolysis): 10 µM
In vitro; human
  remaining at 6 h: ~50%
[5]
  IC50: 1 µM
[2]
  MIC S. aureus: 0.625 µM (≈ 2.26 µg/mL)
[6]
  MIC C. albicans: 1.25 µM (≈ 4.52 µg/mL)
  MIC fung.: 1.25 µM (≈ 4.52 µg/mL)
[3]
  MIC E. coli: 0.625 µM (≈ 2.26 µg/mL)
  MIC bact.: 0.63 µM (≈ 2.28 µg/mL)
[4]
  MIC P. aeruginosa: 0.625 µM (≈ 2.26 µg/mL)

## CC[C@H](C)[C@@H]1NC(=O)[C@H](CCCNC(=N)N)NC(=O)[C@H](CCC(N)=O)NC(=O)[C@H](C(C)C)NC(=O)[C@H]([C@@H](C)CC)NC(=O)[C@H](CCCNC(=N)N)NC(=O)[C@H](CCCCN)NC(=O)CNC(=O)CNC(=O)[C@H](C)NC(=O)CNC(=O)[C@H](CCCNC(=N)N)NC(=O)[C@H](CC(C)C)NC(=O)[C@H](Cc2ccccc2)NC(=O)[C@H](CC(=O)O)NC(=O)[C@H](CCCCN)NC(=O)[C@H]([C@@H](C)CC)NC(=O)[C@H](CCCNC(=N)N)NC(=O)[C@H](CCC(N)=O)NC(=O)[C@H](C(C)C)NC(=O)[C@H]([C@@H](C)CC)NC(=O)[C@H](CCCNC(=N)N)NC(=O)[C@H](CCCCN)NC(=O)CNC(=O)CNC(=O)[C@H](C)NC(=O)CNC(=O)[C@H](CCCNC(=N)N)NC(=O)[C@H](CC(C)C)NC(=O)[C@H](Cc2ccccc2)NC(=O)[C@H](CC(=O)O)NC(=O)[C@H](CCCCN)NC1=O [cd4] (cyclo(AGGKRIVQRIKDFLRGAGGKRIVQRIKDFLRG))
Human type A RBCs
  HC50 (hemolysis): > 40 µM
In vitro; human
  remaining at 6 h: ~50%
[5]
  IC50: 5.1 µM
[2]
  MIC S. aureus: 1.25 µM (≈ 4.49 µg/mL)
[6]
  MIC C. albicans: 2.5 µM (≈ 8.98 µg/mL)
  MIC fung.: 2.5 µM (≈ 8.98 µg/mL)
[3]
  MIC E. coli: 0.625 µM (≈ 2.25 µg/mL)
  MIC bact.: 0.63 µM (≈ 2.26 µg/mL)
[4]
  MIC P. aeruginosa: 0.625 µM (≈ 2.25 µg/mL)

## RLFDKIRQVIRK [retro-KR-12]
In vitro; 37°C
  detection in serum after 20 min: could not be detected
In vitro; human
  remaining at 10 min: ~20%
[2]
  MIC S. aureus: 10 µM
[6]
  MIC C. albicans: 5 µM
[3]
  MIC E. coli: 5 µM
[4]
  MIC P. aeruginosa: 10 µM
